Results taken from paper PMC7845594, “Novel Immune Modulators Enhance Caenorhabditis elegans Resistance to Multiple Pathogens” (mSphere, 2021).

System: C. elegans host defense pathway genes
Assay: nanoString expression of 115 immune- and stress-responsive genes
Conditions: 100 μM LK molecules, 16 h
Experimental: The ratio of MIC to EC was determined for each of the 69 compounds.
Analysis of the expression of 115 immune- and stress-responsive genes using nanoString technology. Download Table S1, XLSX file, 0.02 MB.
For nanoString-based (nanoString Technologies, Seattle, WA) experiments, 2,000 wild-type, young adult worms were exposed to 100 μM LK molecules or DMSO control in S Basal medium in 6-well plates for 16 h. RNA purification and gene expression analysis were performed according to nanoString guidelines. Two biological replicates were tested for each condition.

SMILES: CNC(=O)Oc1c(Br)cc2sc(=O)oc2c1Br [LK34]
- B0024.4 expression, induction: 0.79 fold
- C02B4.2 nhr-17 expression, induction: 1.60 fold
- C03G6.15 cyp-35A2 expression, induction: 2.32 fold
- C06B3.3 cyp-35C1 expression, induction: 2.40 fold
- C06B3.7 expression, induction: 2.34 fold
- C07G3.2 irg-1 expression, induction: 2.14 fold
- C12C8.1 hsp-70 expression, induction: 2.02 fold
- C15F1.7 sod-1 expression, induction: 2.23 fold
- C29F7.2 expression, induction: 1.42 fold
- C31A11.5 oac-6 expression, induction: 3.81 fold
- C32D5.12 expression, induction: 2.84 fold
- C32H11.1 expression, induction: 5.22 fold
- C32H11.3 expression, induction: 4.04 fold
- C34G6.4 pgp-2 expression, induction: 1.78 fold
- C37C3.10 expression, induction: 2.56 fold
- C37H5.8 hsp-6 expression, induction: 2.28 fold
- C49G7.5 irg-2 expression, induction: 2.61 fold
- F08F8.5 numr-1 expression, induction: 3.73 fold
- F08H9.4 expression, induction: 2.08 fold
- F14F9.3 expression, induction: 2.72 fold
- F22B5.4 expression, induction: 0.86 fold
- F22H10.2 expression, induction: 1.72 fold
- F26A3.4 expression, induction: 1.09 fold
- F35E8.11 cdr-1 expression, induction: 3.15 fold
- F35G2.4 phy-2 expression, induction: 1.71 fold
- F37B12.2 gcs-1 expression, induction: 4.32 fold
- F43E2.8 hsp-4 expression, induction: 2.24 fold
- F44E5.5 expression, induction: 1.49 fold
- F49F1.6 expression, induction: 1.85 fold
- F49F1.7 expression, induction: 3.64 fold
- F49H6.13 expression, induction: 2.55 fold
- F54B8.4 expression, induction: 1.78 fold
- F55G11.2 expression, induction: 1.39 fold
- F59A7.1 clec-206 expression, induction: 2.12 fold
- F59B10.4 expression, induction: 1.89 fold
- H12D21.1 nspa-1 expression, induction: 39.17 fold
- H23N18.1 ugt-13 expression, induction: 2.95 fold
- H23N18.3 ugt-8 expression, induction: 5.59 fold
- K05B2.4 expression, induction: 3.62 fold
- K07C6.3 cyp-35B2 expression, induction: 4.00 fold
- K07G6.4 cyp-35B1 expression, induction: 2.31 fold
- K08F4.7 gst-4 expression, induction: 9.69 fold
- K09A9.1 nipi-3 expression, induction: 1.52 fold
- K09D9.2 cyp-35A3 expression, induction: 3.13 fold
- K10D11.2 expression, induction: 1.97 fold
- K10G4.3 expression, induction: 2.74 fold
- R03D7.6 gst-5 expression, induction: 9.49 fold
- R08H2.1 dhs-23 expression, induction: 3.44 fold
- R10E8.3 expression, induction: 2.60 fold
- T19D12.3 expression, induction: 3.00 fold
- T19H12.1 ugt-9 expression, induction: 2.48 fold
- T21E8.1 pgp-6 expression, induction: 2.62 fold
- T22B7.3 expression, induction: 1.84 fold
- T24C4.4 expression, induction: 2.67 fold
- T24E12.5 expression, induction: 4.33 fold
- T27E4.3 hsp-16.48 expression, induction: 1.73 fold
- T27E4.8 hsp-16.1 expression, induction: 1.82 fold
- T27F6.8 expression, induction: 1.45 fold
- T28C12.4 expression, induction: 1.59 fold
- W02D9.10 expression, induction: 1.15 fold
- Y22D7AL.5 hsp-60 expression, induction: 1.77 fold
- Y38E10A.15 nspe-7 expression, induction: 2.14 fold
- Y46H3A.2 hsp-16.41 expression, induction: 2.00 fold
- Y46H3A.3 hsp-16.2 expression, induction: 1.72 fold
- Y56A3A.33 expression, induction: 1.77 fold
- Y58A7A.5 expression, induction: 3.10 fold
- ZC376.7 atfs-1 expression, induction: 1.86 fold
- ZC443.6 ugt-16 expression, induction: 2.76 fold
- ZK697.6 gst-21 expression, induction: 2.66 fold

SMILES: CCN(CC)/N=N/c1ccc(C(=O)O)cc1 [LK35]
- B0024.4 expression, induction: 0.69 fold
- C02B4.2 nhr-17 expression, induction: 4.68 fold
- C06B3.7 expression, induction: 4.95 fold
- C07G3.2 irg-1 expression, induction: 2.81 fold
- C12C8.1 hsp-70 expression, induction: 9.31 fold
- C15F1.7 sod-1 expression, induction: 1.69 fold
- C29F7.2 expression, induction: 7.54 fold
- C31A11.5 oac-6 expression, induction: 4.61 fold
- C32D5.12 expression, induction: 0.39 fold
- C32H11.1 expression, induction: 0.93 fold
- C32H11.3 expression, induction: 2.10 fold
- C34G6.4 pgp-2 expression, induction: 8.04 fold
- C37C3.10 expression, induction: 68.75 fold
- C37H5.8 hsp-6 expression, induction: 4.54 fold
- C49G7.5 irg-2 expression, induction: 14.15 fold
- F08F8.5 numr-1 expression, induction: 26.12 fold
- F08H9.4 expression, induction: 14.14 fold
- F14F9.3 expression, induction: 17.12 fold
- F22B5.4 expression, induction: 0.69 fold
- F22H10.2 expression, induction: 2.36 fold
- F26A3.4 expression, induction: 1.28 fold
- F35E8.11 cdr-1 expression, induction: 87.64 fold
- F35G2.4 phy-2 expression, induction: 1.60 fold
- F37B12.2 gcs-1 expression, induction: 12.12 fold
- F43E2.8 hsp-4 expression, induction: 31.03 fold
- F44E5.5 expression, induction: 8.59 fold
- F49F1.6 expression, induction: 2.32 fold
- F49F1.7 expression, induction: 2.34 fold
- F49H6.13 expression, induction: 18.14 fold
- F54B8.4 expression, induction: 4.73 fold
- F55G11.2 expression, induction: 2.21 fold
- F59A7.1 clec-206 expression, induction: 9.10 fold
- F59B10.4 expression, induction: 4.48 fold
- H12D21.1 nspa-1 expression, induction: 36.00 fold
- H23N18.1 ugt-13 expression, induction: 10.66 fold
- H23N18.3 ugt-8 expression, induction: 9.55 fold
- K05B2.4 expression, induction: 14.78 fold
- K08F4.7 gst-4 expression, induction: 12.53 fold
- K09A9.1 nipi-3 expression, induction: 4.14 fold
- K10D11.2 expression, induction: 11.43 fold
- K10G4.3 expression, induction: 5.63 fold
- R03D7.6 gst-5 expression, induction: 144.12 fold
- R08H2.1 dhs-23 expression, induction: 121.17 fold
- R10E8.3 expression, induction: 5.61 fold
- T19D12.3 expression, induction: 88.57 fold
- T19H12.1 ugt-9 expression, induction: 6.78 fold
- T21E8.1 pgp-6 expression, induction: 2.39 fold
- T22B7.3 expression, induction: 7.07 fold
- T24C4.4 expression, induction: 4.80 fold
- T24E12.5 expression, induction: 34.94 fold
- T27E4.3 hsp-16.48 expression, induction: 10.63 fold
- T27E4.8 hsp-16.1 expression, induction: 10.52 fold
- T27F6.8 expression, induction: 3.60 fold
- T28C12.4 expression, induction: 9.37 fold
- W02D9.10 expression, induction: 7.18 fold
- Y22D7AL.5 hsp-60 expression, induction: 2.52 fold
- Y38E10A.15 nspe-7 expression, induction: 3.39 fold
- Y46H3A.2 hsp-16.41 expression, induction: 6.06 fold
- Y46H3A.3 hsp-16.2 expression, induction: 6.32 fold
- Y56A3A.33 expression, induction: 3.94 fold
- Y58A7A.5 expression, induction: 9.18 fold
- ZC376.7 atfs-1 expression, induction: 3.43 fold
- ZC443.6 ugt-16 expression, induction: 25.67 fold
- ZK697.6 gst-21 expression, induction: 2.35 fold
